Values joined by “and” are separate entries in the source; they are usually repeats but may differ in a detail not shown here. Equal values may be shown once.
How the values were obtained:
Histamine H4 receptor = Histamine H4 receptor (Homo sapiens, UniProt Q9H3N8)
Hrh3 protein = Hrh3 protein (Rattus norvegicus, UniProt Q5PPG3)
Histamine H1 receptor = Histamine H1 receptor (Homo sapiens, UniProt P35367)
Histamine H3 receptor [1] = target: Histamine H3 receptor (Homo sapiens, UniProt Q9Y5N1)
Histamine H3 receptor [2] = target: Histamine H3 receptor (Cavia porcellus, UniProt Q9JI35)
Chain of Histamine H3 receptor (Cavia porcellus, UniProt Q9JI35) (Q9JI35 whole entry): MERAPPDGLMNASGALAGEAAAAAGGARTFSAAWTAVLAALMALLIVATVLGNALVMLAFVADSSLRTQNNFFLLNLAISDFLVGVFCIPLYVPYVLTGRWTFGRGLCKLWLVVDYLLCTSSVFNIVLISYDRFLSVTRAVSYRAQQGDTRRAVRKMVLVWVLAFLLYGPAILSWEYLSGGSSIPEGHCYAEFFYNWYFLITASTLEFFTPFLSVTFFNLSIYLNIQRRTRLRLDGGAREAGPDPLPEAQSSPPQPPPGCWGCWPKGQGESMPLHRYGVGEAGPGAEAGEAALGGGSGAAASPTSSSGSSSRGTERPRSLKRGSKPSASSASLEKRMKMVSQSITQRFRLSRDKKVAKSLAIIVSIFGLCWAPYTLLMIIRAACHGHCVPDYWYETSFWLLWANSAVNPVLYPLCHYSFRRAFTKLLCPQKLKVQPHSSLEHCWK

Histamine H2 receptor = Histamine H2 receptor (Homo sapiens, UniProt P25021)
Chain of Histamine H2 receptor (P25021 whole entry): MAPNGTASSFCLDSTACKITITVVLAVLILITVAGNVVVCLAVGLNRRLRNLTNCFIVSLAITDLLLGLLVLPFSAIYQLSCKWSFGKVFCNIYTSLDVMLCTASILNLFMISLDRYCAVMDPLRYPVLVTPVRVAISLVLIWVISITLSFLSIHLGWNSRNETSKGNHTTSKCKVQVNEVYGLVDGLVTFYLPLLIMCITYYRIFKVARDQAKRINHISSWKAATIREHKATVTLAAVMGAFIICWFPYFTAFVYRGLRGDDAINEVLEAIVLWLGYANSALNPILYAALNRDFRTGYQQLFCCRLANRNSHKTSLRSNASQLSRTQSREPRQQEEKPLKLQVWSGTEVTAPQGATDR

Histamine receptor H3 = Histamine receptor H3 (Canis lupus familiaris, UniProt Q865E3)
Chain of Histamine receptor H3 (Q865E3 whole entry): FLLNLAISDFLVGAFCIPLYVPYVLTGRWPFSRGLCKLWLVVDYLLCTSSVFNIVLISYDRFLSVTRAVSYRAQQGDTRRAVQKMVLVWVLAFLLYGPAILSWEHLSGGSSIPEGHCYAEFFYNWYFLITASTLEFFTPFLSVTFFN

Chain of Hrh3 protein (Q5PPG3 whole entry): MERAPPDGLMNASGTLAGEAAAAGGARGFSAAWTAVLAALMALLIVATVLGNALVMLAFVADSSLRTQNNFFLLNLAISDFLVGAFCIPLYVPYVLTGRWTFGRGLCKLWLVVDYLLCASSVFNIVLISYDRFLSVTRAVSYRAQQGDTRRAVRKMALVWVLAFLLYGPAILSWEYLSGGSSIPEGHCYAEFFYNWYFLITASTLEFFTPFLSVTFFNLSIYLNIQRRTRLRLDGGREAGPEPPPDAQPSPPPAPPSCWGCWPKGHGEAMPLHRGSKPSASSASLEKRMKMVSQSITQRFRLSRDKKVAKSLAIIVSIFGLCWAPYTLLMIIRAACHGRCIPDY
Chain of Histamine H3 receptor (Homo sapiens, UniProt Q9Y5N1) (Q9Y5N1 whole entry): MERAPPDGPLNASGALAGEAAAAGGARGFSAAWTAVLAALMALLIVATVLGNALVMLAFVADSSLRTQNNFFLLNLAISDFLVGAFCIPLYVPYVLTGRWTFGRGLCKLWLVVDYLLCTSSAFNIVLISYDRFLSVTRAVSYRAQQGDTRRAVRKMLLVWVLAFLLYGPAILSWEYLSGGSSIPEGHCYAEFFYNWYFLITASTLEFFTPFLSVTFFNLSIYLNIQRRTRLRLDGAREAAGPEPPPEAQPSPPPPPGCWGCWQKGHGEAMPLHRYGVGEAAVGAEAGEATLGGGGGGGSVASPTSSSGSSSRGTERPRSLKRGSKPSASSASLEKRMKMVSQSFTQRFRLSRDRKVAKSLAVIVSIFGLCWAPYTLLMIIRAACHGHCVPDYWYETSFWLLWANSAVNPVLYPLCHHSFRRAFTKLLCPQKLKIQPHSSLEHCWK
Chain of Histamine H1 receptor (P35367 whole entry): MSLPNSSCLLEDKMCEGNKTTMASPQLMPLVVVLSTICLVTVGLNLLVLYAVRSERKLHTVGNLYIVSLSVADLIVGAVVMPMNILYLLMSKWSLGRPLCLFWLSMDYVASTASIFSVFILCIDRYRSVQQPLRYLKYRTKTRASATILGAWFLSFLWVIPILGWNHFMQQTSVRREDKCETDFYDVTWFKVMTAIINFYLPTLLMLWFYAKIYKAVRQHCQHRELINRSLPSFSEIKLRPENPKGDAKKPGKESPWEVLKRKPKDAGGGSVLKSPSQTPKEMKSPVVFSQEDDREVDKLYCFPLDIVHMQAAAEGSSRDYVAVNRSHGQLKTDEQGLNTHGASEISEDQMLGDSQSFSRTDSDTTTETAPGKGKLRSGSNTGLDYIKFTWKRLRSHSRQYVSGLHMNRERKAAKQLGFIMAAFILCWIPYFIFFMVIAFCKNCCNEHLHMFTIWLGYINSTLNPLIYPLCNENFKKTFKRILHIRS

| Ki (Histamine H4 receptor) | Ki (Hrh3 protein) | Ki (Histamine H2 receptor) | Ki (Histamine receptor H3) | SMILES | Ki (Histamine H1 receptor) | Ki (Histamine H3 receptor [1]) | Ki (Histamine H3 receptor [2]) |
| --- | --- | --- | --- | --- | --- | --- | --- |
| > 10000 nM | 1.23 nM and 3.24 nM | 6760 nM | 3.89 nM | C[C@@H]1CCCN1CCc1cc2cc(-c3ccc(C#N)cc3)ccc2o1 [(R)-4-(2-(2-(2-methylpyrrolidin-1-yl)ethyl)benzofuran-5-yl)benzonitrile] | 1620 nM |  |  |
| > 10000 nM | 1.66 nM and 1.45 nM | > 10000 nM | 1.2 nM | C[C@@H]1CC[C@@H](C)N1CCCOc1ccc(-c2ccc(C(=O)N3CCOCC3)cc2)cc1 [(4'-(3-((2R,5R)-2,5-dimethylpyrrolidin-1-yl)propoxy)biphenyl-4-yl)(morpholino)methanone] |  | 0.41 nM and 0.43 nM | 0.55 nM |

| SMILES | Ki (Histamine H4 receptor) | Ki (Hrh3 protein) | Ki (Histamine H2 receptor) | Ki (Histamine receptor H3) | Ki (Histamine H1 receptor) | Ki (Histamine H3 receptor [1]) | Ki (Histamine H3 receptor [2]) |
| --- | --- | --- | --- | --- | --- | --- | --- |
| CC(C)(C)CCC#C[C@@H]1C[C@H]1c1c[nH]cn1 | 51.3 nM | 0.11 nM and 0.25 nM | > 10000 nM | 1.32 nM | > 10000 nM | 5.25 nM and 12.3 nM | 0.63 nM |
